Assays:
SAPK/JNK = assay: Aβ25-35-induced SAPK/JNK phosphorylation in N2a cells (ELISA); type: cell-based; conditions: concomitant treatment 30-40 min
Method: 7. Measure the amount of total and phosphorylated SAPK/JNK in cell lysates) of N2a cells, by ELISA using the PathScan total SAPK/JNK sandwich ELISA kit (Cell Signaling TECHNOLOGY) and the PathScan phosoho-SAPK/JNK (Thr183/Tyr185) sandwich ELISA kit (Cell Signaling TECHNOLOGY), respectively, according to the manufacturer's instructions. 8. Determine the optical density at 450 nm using a microplate reader.
(§1) N2a cells were treated concomitantly with Aβ25-35 and TIF for 40 min. Cells were extracted and the levels of phosphorylated or total SAPK/JNK were determined by specific ELISA kits. The results are the mean±SEM of two different experiments (n=4) for phosphorylated SAPK/JNK and three different experiments (n=6) for total SAPK/JNK.
as §1, with “achillolide A” for “TIF”
N2a cells were treated concomitantly with Aβ25-35 and memantine for 30 min. Cells were extracted and the levels of phosphorylated SAPK/JNK were determined by a specific ELISA kit. The results are the mean±SEM of one experiment (n=2).

N2a neuronal cells [1] = assay: Aβ25-35-induced neuronal cell death (LDH, crystal violet); type: cell-based; conditions: Aβ25-35 25 μM, 20 hr; LDH and crystal violet
Method: Treat N2a neuronal cells with 25 micromolars of freshly diluted Aβ25-35 in the presence or absence of AcA or TTF.
N2a neuronal cells were treated with Aβ25-35 (25 μM) and TTF. Cytotoxicity (FIG. 10A) and viability (FIG. 10B) were obtained through LDH method and Crystal violet staining respectively and measured 20 hr later. The results are the mean±SEM of two different experiments (n=15).
N2a neuronal cells were treated with Aβ25-35 (25 μM) and achillolide A. Cytotoxicity (FIG. 27A) viability (FIG. 27B) and ROS levels (FIG. 27C) were measured 20 hr later. The results are the mean±SEM of two different experiments (n=16).

IL-1β = IL-1β secretion from LPS-stimulated microglial cells (ELISA); type: cell-based, rat; conditions: LPS 100 ng/mL, 24 h
Method: Cultures of primary rat microglial cells were prepared from cerebral cortices of 1-2 day-old neonatal Wistar rats as described. Microglial cells were seeded at 24-well plastic plates at 1×10^5/well in RPMI-1640 containing 2% FBS, 2 mM glutamine, 100 U/mL penicillin, 100 µg/mL streptomycin, 1 mM sodium pyruvate, and 50 μM β-mercaptoethanol. Cells were cultured for 36 h before treatments. The research was conducted in accordance with the NIH guide for the care and use of laboratory animals, and was approved by the Institutional Animal Care and Use Committee of The Volcani Center, Agricultural Research Organization (IL-135/07, approval date Apr. 11, 2007). All efforts were made to minimize animal suffering, and to reduce the number of animals used.
For IL-1β measurements, 3.5×10^4 cells/well were plated on a 24-well tissue culture plate. After 24 h of incubation in DMEM containing 10% FBS, cells were stimulated with LPS (100 ng/mL) and treated with different concentrations of achillolide A. Conditioned media were collected twenty four hours later, and were tested with a rat IL1β ELISA kit (Novus Biologicals; CO, USA), according to the manufacturer's instructions.
2. Plate microglial cells (3.5×10^4 cells/well) on a 24-well tissue culture plate, in DMEM containing 10% FBS, 2 mM glutamine, 100 U/ml penicillin and 100 micrograms/mL streptomycin;
Microglial cells were treated with different concentrations of TTF, followed by stimulation with LPS (100 ng/mL). After 24 h, conditioned media were collected and tested for cytokine levels by ELISA. Cell viability was determined using the crystal violet assay (FIG. 9C). Values represent the means±SEM (n=4 for each treatment).
Microglial cells were treated with 20 μg/mL of achillolide A, followed by stimulation with LPS (4.5 ng/mL). After 5 h the levels of the indicated transcripts were measured by quantitative real-time PCR and the relative quantity (RQ) of the different transcripts were determined. […] The results are expressed as percentages relative to LPS-stimulated cells. […]

N2a neuronal cells [2] = assay: Glutamate-induced neuronal cell death (LDH); type: cell-based; conditions: LDH 20 hr later
Method: Grow N2a cells in DMEM (high glucose, 225 ml), Opti-MEM (250 ml) containing 1% Fetal Bovine Serum, 2 mM L-Glutamine, 100 U/ml penicillin and 100 micrograms/mL streptomycin.
Treat N2a neuronal cells with AcA or TTF.
Two hr later add 100 micromolars of freshly diluted glutamate;
Incubate the culture for 20 hr (37° C., 5% CO2);
Measure cytotoxicity by the LDH method
N2a neuronal cells were treated with glutamate (100 μM) and TTF. Cytotoxicity was measured 20 hr later. The results are shown in FIG. 16 and are the mean±SEM of one experiment (n=8).
Achillolide A was added to N2a cells before (−2 h, −1 h) concomitant (0) or after (1 h, 2 h) the addition of glutamate. Cytotoxicity was measured 20 h later by the levels of LDH in the conditioned media. Results are means±SEM of two experiments (n=16). **P<0.01, ***P<0.001, compared to cells that were treated with glutamate only.
N2a neuronal cells were treated with Aβ25-35 (25 μM) and achillolide A. Cytotoxicity was measured 20 hr later. The results are the means±SEM of two different experiments (n=16).
N2a neuronal cells were treated with Aβ25-35 (25 μM) and achillolide A or memantine. Cytotoxicity was measured 20 hr later. The results are the mean±SEM of two different experiments (n=16) for AcA and one experiment (n=8) for memantine.

Compound | effect on Aβ25-35-induced phosphorylation of SAPK/JNK (SAPK/JNK) | effect on Aβ25-35-induced cytotoxicity (N2a neuronal cells [1]) | inhibition of IL-1β secretion (IL-1β) | effect on glutamate-induced cytotoxicity (N2a neuronal cells [2]) | effect on LPS-elicited IL-1β secretion (IL-1β)
CC12CC3CC(C)(C1)CC(N)(C3)C2 [memantine, reference compound] | down-regulates |  |  |  | 
C=C1CCC2=C(CO)C(=O)O[C@H]2/C=C(\C)[C@H](OC(C)=O)CC1=O [achillolide A] | significantly decreased | prevents the cytotoxic effect at nanomolar concentrations | 59% | prevents the cytotoxic effect at nanomolar concentrations | 
COc1cc(-c2oc3cc(OC)c(OC)c(O)c3c(=O)c2O)ccc1O [TTF, 3,5,4′-trihydroxy-6,7,3′-trimethoxyflavone] | significantly inhibited | prevents the cytotoxic effect at nanomolar concentrations |  | prevents the cytotoxic effect at nanomolar concentrations | markedly inhibited

From patent US11752125B2, “Anti-neuroinflammatory and protective compounds in Achillea fragrantissima” (THE STATE OF ISRAEL MINISTRY OF AGRICULTURE & RURAL …, priority 2013, dated 2023)
